Patent publication US20260071518A1, “SURFACTANT FOR CARBON DIOXIDE STORAGE” (TOTALENERGIES ONETECH, priority 2022, published 2026)

Columns and labels:
[1] = slim tube packed with sand, co-injection of carbon dioxide and surfactant-brine composition, apparent viscosity (Example 1); assay type: physicochemical; settings: 0.2 wt. % in 220 g/L NaCl brine, pH=6, 25° C., 150 bar, carbon dioxide fraction 50%, versus comparative surfactant compounds
Procedure: In this example, experiments were conducted within a slim tube packed with sand. The tube length was 25 cm, the tube diameter was 1 cm.
Various surfactant compositions were made by dissolving 0.2 wt. % of an individual surfactant compound in brine having a NaCl content of 220 g/L, buffered at pH=6 with a sodium acetate/acetic acid buffer.
Carbon dioxide and the surfactant-brine composition were co-injected into the slim tube via two separate inlets, at a temperature of 25° C. and at a pressure of 150 bar, with a total flow rate of 60 ft/day and a carbon dioxide fraction of 50%.
The pressure drop across the tube was measured and the apparent viscosity was calculated based on Darcy's law. Specifically, the apparent viscosity was obtained according to the following formula: (permeability×pressure gradient)/(volume flow/inlet area of the core (tube)).

[2] = carbonate core co-injection of carbon dioxide and surfactant-water composition, gas saturation and apparent viscosity (Example 4); assay type: physicochemical; settings: 0.2 wt. % in water, 110° C., 150 bar
Procedure: In this example, experiments were conducted using a carbonate core. The core was 30.1 cm long, having a diameter of 3.8 cm, a porosity of 28%, permeability of 130 md.
A surfactant-water composition was prepared by dissolving 0.2 wt. % of a surfactant compound (compound E of Example 1, N^1-dodecyl-N^3,N^3-dimethylpropane-1,3-diamine) in water.
Carbon dioxide and the surfactant-water composition were co-injected into the carbonate core via two separate inlets, at a temperature of 110° C. and at a pressure of 150 bar, with a total flow rate of 4 ft/day, varying the fraction of carbon dioxide from 50% to 95%. Carbon dioxide and water alone were also co-injected into the carbonate core under the same conditions.
The gas saturation in the core was measured by obtaining a mass balance between what is injected (water+CO2−pump control) and produced water measured by burette (volume) along with a scale (mass).
The apparent viscosity was calculated based on Darcy's law.

CCCCCCCCCCCCNCCCN(C)C [Compound E, N^1-dodecyl-N^3,N^3-dimethylpropane-1,3-diamine]
rise in apparent viscosity [1]: quicker and higher rise in viscosity | apparent viscosity of the resulting emulsion ([2]; CO2 fraction 50% to 95%, versus absence of surfactant): higher apparent viscosity | change of apparent viscosity with CO2 fraction ([2]; CO2 fraction increased from 50 to 95%): decreased | gas (CO2) saturation increase compared to absence of surfactant ([2]; at each CO2 fraction tested (50% to 95%)): 2-4 fold
